Source: patent US10654845B2, “2-(het)aryl-substituted fused bicyclic heterocycle derivatives as pesticides” (BAYER CROPSCIENCE AKTIENGESELLSCHAFT, priority 2015, dated 2020)

Experiments:
[1] = log P by HPLC on reversed-phase column (C18), EEC Directive 79/831 Annex V.A8; settings: for chromatographic logP: reversed-phase HPLC column (C18)
Excerpt: Called log P (HCOOH) in the table.
Called log P (neutral) in the table.

[2] = system: Phaedon cochleariae; test: Phaedon cochleariae spray test; format: in vivo; settings: after 7 days, beetle larvae killed; for pest or weed control at 500 g/ha: Phaedon cochleariae, 168 h, read-out: efficacy in %
Protocol: Phaedon cochleariae-Spray Test
(§1) Solvent: 78.0 parts by weight of acetone
(§2) • 1.5 parts by weight of dimethylformamide Emulsifier: alkylaryl polyglycol ether
(§3) To produce a suitable preparation of active compound, 1 part by weight of active compound is dissolved using the stated parts by weight of solvent and made up with water containing an emulsifier concentration of 1000 ppm until the desired concentration is attained. To produce further test concentrations, the preparation is diluted with emulsifier-containing water.
After 7 days, the efficacy in % is determined. 100% means that all the beetle larvae have been killed; 0% means that no beetle larvae have been killed.

[3] = system: Myzus persicae; test: Myzus persicae spray test (Chinese cabbage leaf discs); format: in vivo; settings: 500 g/ha, after 6 days, aphids killed; for pest or weed control at 500 g/ha: Myzus persicae, foliar, 144 h, read-out: efficacy in %
Protocol: Myzus persicae Spray Test
Solvent: 78 parts by weight of acetone
as §2, §3
Discs of Chinese cabbage leaves (Brassica pekinensis) infested by all stages of the green peach aphid (Myzus persicae) are sprayed with an active compound preparation of the desired concentration.
After 6 days, the efficacy in % is determined. 100% means that all the aphids have been killed; 0% means that no aphids have been killed.

[4] = system: Spodoptera frugiperda; test: Spodoptera frugiperda spray test; format: in vivo; settings: 500 g/ha, after 7 days, caterpillars killed
Protocol: Spodoptera frugiperda-Spray Test Solvent: 78.0 parts by weight of acetone • • 1.5 parts by weight of dimethylformamide Emulsifier: alkylaryl polyglycol ether […] To produce further test concentrations, the preparation is diluted with emulsifier-containing water. Leaf disks of maize (Zea mays) are sprayed with an active compound preparation of the desired concentration and, after drying, populated with caterpillars of the armyworm (Spodoptera frugiperda).

[5] = system: Tetranychus urticae; test: Tetranychus urticae spray test, OP-resistant; format: in vivo; settings: 500 g/ha, after 6 days, spider mites killed
Protocol: Tetranychus urticae-Spray Test, OP-Resistant
as §1, §2, §3
Discs of bean leaves (Phaseolus vulgaris) infested with all stages of the greenhouse red spider mite (Tetranychus urticae) are sprayed with an active compound preparation of the desired concentration.
After 6 days, the efficacy in % is determined. 100% means that all the spider mites have been killed; 0% means that no spider mites have been killed.

[6] = pH 2.7, logP-acidic, LC-MS acidic range, pH 2.7 (HCOOH), C18, 55° C.
[7] = pH 7.8, log P (neutral), preparation examples, neutral range, pH 7.8
[8] = pH 7.8, logP-neutral, LC-MS neutral range, pH 7.8, C18, 55° C.

| SMILES | logP-acidic ([1]; pH 2.7) | logP-neutral ([1]; pH 7.8) | efficacy in % ([2]; 500 g/ha) [%] | efficacy in % [3] [%] | chromatographic logP [1, 6] | chromatographic logP [1, 7] | chromatographic logP [1, 8] | pest or weed control at 500 g/ha [3] [%] | also measured |
| --- | --- | --- | --- | --- | --- | --- | --- | --- | --- |
| CC[S+]([O-])c1ccc(NC(C)=O)nc1-c1nc2cc(C(F)(F)F)ncc2n1C (stereo not drawn) [Example 9] | 2.02 | 1.97 | 83 | 90 |  |  |  |  |  |
| CCC(=O)Nc1ccc(S(=O)(=O)CC)c(-c2nc3cc(C(F)(F)F)ncc3n2C)n1 [Example 13] | 2.33 | 2.28 | 100 | 90 |  |  |  |  |  |
| CCS(=O)(=O)c1ccc(NC(=O)C(C)C)nc1-c1nc2cc(C(F)(F)F)ncc2n1C [Example 16, N-{5-(Ethylsulphonyl)-6-[3-methyl-6-(trifluoromethyl)-3H-imidazo[4,5-c]pyridin-2-yl]pyridin-2-yl}-2-methylpropanamide] |  |  |  |  | 2.63 | 2.61 | 2.61 | 100 | pest or weed control at 500 g/ha ([2]; 500 g/ha): 100% |
| CCS(=O)(=O)c1ccc(NC(=O)c2ccccc2)nc1-c1nc2cc(C(F)(F)F)ncc2n1C [Example 20] | 2.98 |  | 83 | 90 |  |  |  |  |  |
| CCS(=O)(=O)c1ccc(NC(=O)COC)nc1-c1nc2cc(C(F)(F)F)ncc2n1C [Example 21] | 2.22 | 2.17 | 100 | 90 |  |  |  |  | efficacy in % [4]: 100% |
| CCS(=O)(=O)c1ccc(NC(=O)C(F)F)nc1-c1nc2cc(C(F)(F)F)ncc2n1C [Example 24] | 2.34 | 2.22 | 100 | 100 |  |  |  |  | efficacy in % [5]: 90% |
| CCS(=O)(=O)c1ccc(C(=O)NC)nc1-c1nc2cc(C(F)(F)F)ncc2n1C [Example 31, 5-(Ethylsulphonyl)-N-methyl-6-[3-methyl-6-(trifluoromethyl)-3H-imidazo[4,5-c]pyridin-2-yl]pyridine-2-carboxamide] |  |  |  |  | 2.01 | 1.96 | 1.96 | 100 | pest or weed control at 500 g/ha ([2]; 500 g/ha): 100%; efficacy in % [5]: 100% |
| CCS(=O)(=O)c1ccc(C(=O)NC2CC2)nc1-c1nc2cc(C(F)(F)F)ncc2n1C [Example 33] | 2.34 | 2.27 |  |  |  |  |  |  | efficacy in % ([2]; 100 g/ha): 83%; efficacy in % [5]: 90% |
| CCS(=O)(=O)c1ccc(C(=S)NC)nc1-c1nc2cc(C(F)(F)F)ncc2n1C [Example 34, 5-(Ethylsulphonyl)-N-methyl-6-[3-methyl-6-(trifluoromethyl)-3H-imidazo[4,5-c]pyridin-2-yl]pyridine-2-carbothioamide] |  |  |  |  | 2.8 | 2.76 | 2.76 | 90 | efficacy in % [5]: 100% |
| CCS(=O)(=O)c1ccc(C(=S)NC2CC2)nc1-c1nc2cc(C(F)(F)F)ncc2n1C [Example 36] | 3.17 | 3.14 | 100 | 90 |  |  |  |  |  |
| CC[S+]([O-])c1ccc(S(=O)(=O)CC)c(-c2nc3cc(C(F)(F)F)ncc3n2C)n1 (stereo not drawn) [Example 37, 2-[6-(Ethylsulphinyl)-3-(ethylsulphonyl)pyridin-2-yl]-3-methyl-6-(trifluoromethyl)-3H-imidazo[4,5-c]pyridine] |  |  |  |  | 2.03 | 2.02 | 2.02 | 90 | pest or weed control at 500 g/ha ([2]; 500 g/ha): 100% |
| CCS(=O)(=O)c1ccc(NC)nc1-c1nc2cc(C(F)(F)F)ncc2n1C [Example 38] |  |  | 100 | 90 |  |  |  |  | logP-acidic ([1]; LC-MS acidic range, pH 2.7 (HCOOH), C18, 55° C.): 2.05; logP-neutral ([1]; LC-MS neutral range, pH 7.8, C18, 55° C.): 2.03 |
| CCS(=O)(=O)c1ccc(/S(C)=N/C#N)nc1-c1nc2cc(C(F)(F)F)ncc2n1C (stereo not drawn) [Example 43, [{5-(Ethylsulphonyl)-6-[3-methyl-6-(trifluoromethyl)-3H-imidazo[4,5-c]pyridin-2-yl]pyridin-2-yl}(methyl)-lambda4-sulphanylidene]cyanamide] |  |  |  |  | 1.75 | 1.75 | 1.75 | 90 | pest or weed control at 500 g/ha ([2]; 500 g/ha): 100% |
| CCOCC(=O)Nc1ccc(S(=O)(=O)CC)c(-c2nc3cc(C(F)(F)F)ncc3n2C)n1 [Example 52] | 2.64 | 2.51 | 100 | 100 |  |  |  |  |  |
